The text below walks through data of patent US7485626B2, “Combinations of enzyme inhibitor-containing preparations and the use thereof” (IMTM GmbH, priority 2000, dated 2009).

What all share (assay type): cell-based
For assay [1], the system named is human peripheric T lymphocytes. The assay is described as follows: DNA synthesis of human T lymphocytes (3[H]-thymidine incorporation). Conditions: 72 h incubation; for DNA synthesis of human peripheric T lymphocytes: simultaneous administration of I49 (DP IV inhibitor) and Actinonin (APN inhibitor), FIG. 1. As for the experimental part: The T cells were incubated for 72 h in the presence of said inhibitors and subsequently, the DNA synthesis rate was determined via a measurement of the ^3[H]-thymidin incorporation, as was described by Reinhold et al. [D. Reinhold et al.: “Inhibitors of dipeptidyl peptidase IV induce secretion of transforming growth factor β1 in PWM-stimulated PBMNC and T cells”, Immunology 1997, 91, 354-360].
Human peripheric T cells were incubated over 3 days with the concentrations of the inhibitors shown. Subsequently, ^3[H]-methyl thymidine was added to the culture medium, and the amount of ^3[H]-thymidine inserted into the DNA was measured after further 6 hours.
The T cells were incubated for 72 h in the presence of said inhibitors, and the DNA synthesis rate was determined subsequently by the measurement of the ^3[H]-thymidine incorporation, as was described by Reinhold et al. [D. Reinhold et al.: “Inhibitors of dipeptidyl peptidase IV induce secretion of transforming growth factor β1 in PWM-stimulated PBMNC and T cells”, Immunology 1997, 91, 354-360].
FIG. 3 show a the synergistic and dose-dependent effect of inhibitors of DP IV (I49) and of prolyl oligopeptidase (Boc-Ala-Thia) on the DNA synthesis of human peripheric T lymphocytes. Human T cells were incubated for three days with the concentrations of inhibitors mentioned above. Subsequently, ^3[H]-methyl thymidine was added to the culture medium, and the amount of ^3[H]-thymidine incorporated into the DNA was measured after further 6 hours.
Human T cells were incubated for three days with the concentrations of inhibitors mentioned above. Subsequently, ^3[H]-methyl thymidine was added to the culture medium, and the amount of ^3[H]-thymidine incorporated into the DNA was measured after further 6 hours.

The test system of assay [2] is human peripheric mononuclear cells (MNZ). The assay is described as follows: DNA synthesis of human peripheric mononuclear cells (3[H]-thymidine incorporation). The conditions noted are these: 72 h incubation. On the procedure: The MNZ were incubated for 72 h in the presence of said inhibitors, and the DNA synthesis rate was determined subsequently by the measurement of the ^3[H]-thymidine incorporation, as was described by Reinhold et al. [D. Reinhold et al.: “Inhibitors of dipeptidyl peptidase IV induce secretion of transforming growth factor β1 in PWM-stimulated PBMNC and T cells”, Immunology 1997, 91, 354-360].
Human MNZ were incubated for three days with the concentrations of inhibitors mentioned above. Subsequently, ^3[H]-methyl thymidine was added to the culture medium, and the amount of ^3[H]-thymidine incorporated into the DNA was measured after further 6 hours.

For assay [3] the test system is unchanged. The assay is described as follows: Proliferation of PHA-activated human mononuclear cells (WST-1 cell proliferation assay). The conditions noted are these: 72 h; for Proliferation of human peripheric mononuclear cells (MNZ), number of metabolically active cells: single and simultaneous administration of I49 and Actinonin, PHA, FIG. 7; for Proliferation of PHA-activated human mononuclear cells (MNZ), number of metabolically active cells: single or simultaneous administration of I49 and Apstatin (X-Pro-aminopeptidase inhibitor), FIG. 10. As for the experimental part: FIG. 7: The MNZ were incubated for a time period of 72 h without addition (control), with an addition of the mitogenic lectin phytohemagglutinin (PHA), and with the addition of PHA and the inhibitors mentioned above, respectively. Subsequently, the number amount of metabolically active cells was determined by using the commercially available WST-1 cell proliferation assay (Takara Inc.) in accordance with the provisions of the manufacturer.
FIG. 10: The mononuclear cells (MNZ) were incubated for a time period of 72 h in the presence of the inhibitors mentioned above single and in combination. Subsequently, the number of metabolically active cells was determined by using the commercially available WST-1 cell proliferation assay (Takara Inc.) in accordance with the provisions of the manufacturer.
On the technique in general: Tetrazolium dyes change colour on reduction, which living cells bring about.

Assay [4] relates to human T cell line KARPAS-299. The assay is described as follows: Proliferation of KARPAS-299 cells (WST-1 cell proliferation assay). Conditions: single and simultaneous administration of I49 and APN inhibitors (Actinonin and Probestin); FIG. 8. As for the experimental part: FIG. 8: The KARPAS-299 cells were incubated without addition (control) and in the presence of single inhibitors mentioned above as well as in the presence of combinations thereof, respectively. Subsequently, the number of metabolically active cells was determined by using the commercially available WST-1 cell proliferation assay (Takara Inc.) in accordance with the provisions of the manufacturer.

For assay [5], the system named is activated human peripheric T cells. The assay is described as follows: Proliferation of activated human peripheric T cells (WST-1 cell proliferation assay). The conditions noted are these: single or simultaneous administration of I49 and APN inhibitors (Actinonin and Probestin); activated with phytohemagglutinine and phorbol-12-myristate-13-acetate; 72 h; FIG. 9. As for the experimental part:
FIG. 9: The T cells, with the exception of the untreated control, were activated by an addition of phytohemagglutinine and phorbol-12-myristate-13-acetate to the culture medium and were incubated for a time period of 72 h in the presence of the above-mentioned inhibitors single and in combination. Subsequently, the number of metabolically active cells was determined by using the commercially available WST-1 cell proliferation assay (Takara Inc.) in accordance with the provisions of the manufacturer.

[6] abbreviates: simultaneous administration of I49 (DP IV inhibitor) and Boc-Ala-thiazolidid (prolyl oligopeptidase inhibitor), FIG. 3.
Setting [7] is: simultaneous administration of I49 (DP IV inhibitor) and Captopril (ACE inhibitor), FIG. 5.
The mark [8] stands for this setting: simultaneous administration of I49 (DP IV inhibitor) and Boc-Ala-Thiazolidid (prolyl oligopeptidase inhibitor), FIG. 4.
Setting [9] is: simultaneous administration of I49 (DP IV inhibitor) and Captopril (ACE inhibitor), FIG. 6.
Where [10] appears, read: simultaneous administration of I49 (DP IV inhibitor) and actinonine (APN inhibitor), FIG. 2.

Consider `NC(CCCCNC(=O)OCc1ccc([N+](=O)[O-])cc1)C(=O)N1CCSC1` (stereo not shown) [I49, Lys[Z(NO2)]-thiazolidid], for which the “DNA synthesis of human peripheric T lymphocytes” value in assay [1] is given as “inhibited in a superadditive manner”. The “DNA synthesis of human T lymphocytes” value in assay [1] (setting [6]) and in assay [1] (setting [7]) was “inhibited in a superadditive manner” in each case. The “DNA synthesis of human peripheric mononuclear cells (MNZ)” value (“DNA synthesis … (MNZ)” below) in assay [2] (setting [8]), in assay [2] (setting [9]) and in assay [2] (setting [10]) was “inhibited in a superadditive manner” throughout. The “Proliferation of human peripheric mononuclear cells (MNZ), number of metabolically active cells” value in assay [3] was “Inhibition of the Proliferation”. Further, the “Proliferation of PHA-activated human mononuclear cells (MNZ), number of metabolically active cells” value in assay [3] is “Inhibition of the Proliferation”. In addition, the “Proliferation of the human T cell line KARPAS-299, number of metabolically active cells” value in assay [4] is listed as “Inhibition of the Proliferation”. Further, the “Proliferation of activated human peripheric T cells, number of metabolically active cells” value in assay [5] is on record as “Inhibition of the Proliferation”.

With `C[C@H](CS)C(=O)N1CCC[C@H]1C(=O)O` [Captopril], in assay [1] (setting [7]), the “DNA synthesis of human T lymphocytes” value is recorded as “inhibited in a superadditive manner”. For the same compound, the “DNA synthesis … (MNZ)” value in assay [2] (setting [9]) is given as “inhibited in a superadditive manner”.

For `CC(C)C[C@H](NC(=O)[C@@H](O)[C@H](N)Cc1ccccc1)C(=O)N1CCC[C@H]1C(=O)N1CCC[C@H]1C(=O)O` [Probestin], the “Proliferation of the human T cell line KARPAS-299, number of metabolically active cells” value in assay [4] is recorded as “Inhibition of the Proliferation”. For the same compound, the “Proliferation of activated human peripheric T cells, number of metabolically active cells” value in assay [5] was “Inhibition of the Proliferation”.

For `CCCCC[C@H](CC(=O)NO)C(=O)N[C@H](C(=O)N1CCC[C@H]1CO)C(C)C` [Actinonin], the “DNA synthesis of human peripheric T lymphocytes” value in assay [1] is “inhibited in a superadditive manner”. The “DNA synthesis … (MNZ)” value in assay [2] (setting [10]) is recorded as “inhibited in a superadditive manner”. Also, the “Proliferation of human peripheric mononuclear cells (MNZ), number of metabolically active cells” value in assay [3] was “Inhibition of the Proliferation”. Moreover, the “Proliferation of the human T cell line KARPAS-299, number of metabolically active cells” value in assay [4] is given as “Inhibition of the Proliferation”. For the same compound, in assay [5], the “Proliferation of activated human peripheric T cells, number of metabolically active cells” value is on record as “Inhibition of the Proliferation”.

Turning to `CC(NC(=O)OC(C)(C)C)C(=O)N1CCSC1` (stereo not drawn) [Boc-Ala-thiazolidid], the “DNA synthesis of human T lymphocytes” value in assay [1] (setting [6]) is reported as “inhibited in a superadditive manner”. In assay [2] (setting [8]), the “DNA synthesis … (MNZ)” value was “inhibited in a superadditive manner”.

Consider `C[C@H](NC(=O)[C@@H]1CCCN1C(=O)[C@@H]1CCCN1C(=O)[C@@H](O)[C@H](N)Cc1ccccc1)C(N)=O` [Apstatin], for which the “Proliferation of PHA-activated human mononuclear cells (MNZ), number of metabolically active cells” value in assay [3] is reported as “Inhibition of the Proliferation”.
